# Test results taken from ChEMBL document CHEMBL4038276 (Bioorg Med Chem, 2017).
# The source made the active and inactive calls. The calls are words filed in the database; no cut-off is given here.
# Legend:
# [1] = target: T1, Kappa-type opioid receptor (Homo sapiens, UniProt P41145); experiment: Agonist activity at human kappa opioid receptor expressed in CHO cell membranes assessed as stimulation of [35S]GTPgammaS binding incubated for 1 hr by liquid scintillation counting method relative to U-69,593; type: functional
# T1 sequence (P41145 whole entry): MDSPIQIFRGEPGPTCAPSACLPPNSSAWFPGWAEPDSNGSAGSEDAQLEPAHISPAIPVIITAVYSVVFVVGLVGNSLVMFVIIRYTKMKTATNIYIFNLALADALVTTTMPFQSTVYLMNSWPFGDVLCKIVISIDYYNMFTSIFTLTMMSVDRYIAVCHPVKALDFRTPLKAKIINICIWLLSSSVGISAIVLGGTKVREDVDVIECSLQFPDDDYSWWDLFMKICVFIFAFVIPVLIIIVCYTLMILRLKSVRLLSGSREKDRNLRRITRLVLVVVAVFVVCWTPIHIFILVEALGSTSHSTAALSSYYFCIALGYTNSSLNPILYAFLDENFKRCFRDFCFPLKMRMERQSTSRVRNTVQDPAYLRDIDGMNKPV
# [2] = target: Kappa-type opioid receptor (Rattus norvegicus, UniProt P34975); experiment: Displacement of [3H]U-69,593 from kappa opioid receptor in rat brain after 60 mins by liquid scintillation counting method
# Kappa-type opioid receptor (Rattus norvegicus, UniProt P34975), sequence (P34975 whole entry): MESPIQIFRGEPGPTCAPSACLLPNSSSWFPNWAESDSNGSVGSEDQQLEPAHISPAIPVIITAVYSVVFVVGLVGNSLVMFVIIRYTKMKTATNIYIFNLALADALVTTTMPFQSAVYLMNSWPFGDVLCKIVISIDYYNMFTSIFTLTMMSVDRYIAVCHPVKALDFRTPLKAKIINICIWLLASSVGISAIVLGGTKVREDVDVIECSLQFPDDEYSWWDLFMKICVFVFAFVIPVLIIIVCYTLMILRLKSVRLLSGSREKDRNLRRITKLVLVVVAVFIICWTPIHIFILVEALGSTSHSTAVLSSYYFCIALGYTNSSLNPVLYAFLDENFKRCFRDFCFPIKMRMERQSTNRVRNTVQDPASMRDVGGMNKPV
# [3] = target: T1, Kappa-type opioid receptor; experiment: Agonist activity at human kappa opioid receptor expressed in CHO cell membranes assessed as stimulation of [35S]GTPgammaS binding incubated for 1 hr by liquid scintillation counting method; type: functional
# [4] = target: Mu-type opioid receptor (Rattus norvegicus) (UniProt P33535); conditions: at 100 nM
# Mu-type opioid receptor (Rattus norvegicus), sequence (P33535 whole entry): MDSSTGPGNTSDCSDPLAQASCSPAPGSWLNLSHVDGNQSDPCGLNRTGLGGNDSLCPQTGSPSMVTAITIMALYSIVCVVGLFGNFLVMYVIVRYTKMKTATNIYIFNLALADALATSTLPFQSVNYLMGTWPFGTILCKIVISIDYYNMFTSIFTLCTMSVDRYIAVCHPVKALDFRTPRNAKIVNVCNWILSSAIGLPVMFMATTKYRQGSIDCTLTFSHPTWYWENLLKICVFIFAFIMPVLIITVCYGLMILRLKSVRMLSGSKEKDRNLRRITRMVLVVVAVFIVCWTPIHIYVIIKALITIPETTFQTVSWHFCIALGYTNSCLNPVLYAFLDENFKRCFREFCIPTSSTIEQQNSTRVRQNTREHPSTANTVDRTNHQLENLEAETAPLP
# [5] = target: Delta-type opioid receptor (Rattus norvegicus) (UniProt P33533); experiment: Agonist activity at rat delta opioid receptor expressed in rat C6 cell membranes assessed as stimulation of [35S]GTPgammaS binding incubated for 1 hr by liquid scintillation counting method relative to DPDPE; type: functional
# Delta-type opioid receptor (Rattus norvegicus), sequence (P33533 whole entry): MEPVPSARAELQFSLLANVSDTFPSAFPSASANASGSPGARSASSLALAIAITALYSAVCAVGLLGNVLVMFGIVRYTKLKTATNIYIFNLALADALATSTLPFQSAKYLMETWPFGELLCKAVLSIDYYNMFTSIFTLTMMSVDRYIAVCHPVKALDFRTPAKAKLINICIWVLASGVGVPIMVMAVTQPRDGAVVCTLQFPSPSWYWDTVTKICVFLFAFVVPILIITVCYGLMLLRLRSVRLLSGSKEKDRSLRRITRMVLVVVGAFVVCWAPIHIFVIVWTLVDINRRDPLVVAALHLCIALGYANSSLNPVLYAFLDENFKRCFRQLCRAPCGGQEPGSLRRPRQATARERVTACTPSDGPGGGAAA
# [6] = target: Mu-type opioid receptor (Rattus norvegicus) (UniProt P33535); experiment: Agonist activity at rat mu opioid receptor expressed in rat C6 cell membranes assessed as stimulation of [35S]GTPgammaS binding incubated for 1 hr by liquid scintillation counting method relative to DAMGO; type: functional
# [7] = organism: Rattus norvegicus; experiment: Selectivity ratio of EC50 for rat delta opioid receptor to EC50 for rat mu opioid receptor
# [8] = target: T2, Mu-type opioid receptor (Rattus norvegicus, UniProt P33535); experiment: Agonist activity at rat mu opioid receptor expressed in rat C6 cell membranes assessed as stimulation of [35S]GTPgammaS binding incubated for 1 hr by liquid scintillation counting method; type: functional
# T2 sequence (P33535 whole entry): as the sequence (P33535 whole entry) above
# [9] = target: Delta-type opioid receptor (Rattus norvegicus) (UniProt P33533); experiment: Displacement of [3H]DADLE from delta opioid receptor in rat brain at 100 nM after 60 mins by liquid scintillation counting method relative to control
# [10] = target: T2, Mu-type opioid receptor
# [11] = Selectivity ratio of EC50 for human kappa opioid receptor expressed in CHO cell membranes to EC50 for rat mu opioid receptor expressed in rat C6 cell membranes; type: cell-based
# [12] = target: Kappa-type opioid receptor (Rattus norvegicus) (UniProt P34975); experiment: Displacement of [3H]U-69,593 from kappa opioid receptor in rat brain at 100 nM after 60 mins by liquid scintillation counting method relative to control
# Kappa-type opioid receptor (Rattus norvegicus), sequence (P34975 whole entry): as the sequence (P34975 whole entry) above
# [13] = target: T3, Delta-type opioid receptor (Rattus norvegicus, UniProt P33533); experiment: Agonist activity at rat delta opioid receptor expressed in rat C6 cell membranes assessed as stimulation of [35S]GTPgammaS binding incubated for 1 hr by liquid scintillation counting method; type: functional
# T3 sequence (P33533 whole entry): as the sequence (P33533 whole entry) above
# [14] = target: T3, Delta-type opioid receptor; experiment: Displacement of [3H]DADLE from delta opioid receptor in rat brain after 60 mins by liquid scintillation counting method
# [15] = target: Mu-type opioid receptor (Rattus norvegicus) (UniProt P33535); experiment: Antagonist activity at rat mu opioid receptor expressed in rat C6 cell membranes assessed as inhibition of DAMGO-induced [35S]GTPgammaS binding measured after 1 hr by liquid scintillation counting method; type: functional
# [16] = target: Mu-type opioid receptor (Rattus norvegicus) (UniProt P33535); experiment: Antagonist activity at rat brain mu opioid receptor expressed in rat C6 cell membranes assessed as inhibition of DAMGO-induced [35S]GTPgammaS binding at 1 uM after 1 hr by liquid scintillation counting method; type: functional
# [17] = target: T1, Kappa-type opioid receptor; experiment: Antagonist activity at human kappa opioid receptor expressed in CHO cell membranes assessed as inhibition of U-69,593-induced [35S]GTPgammaS binding measured after 1 hr by liquid scintillation counting method; type: functional
Structure (SMILES),Activity [1] [%],Ki [2] [nM],EC50 [3] [nM],inhibition [4] [%],Activity [5] [%],Activity [6] [%],Ratio EC50 [7],EC50 [8] [nM],inhibition [9] [%],Ki [10] [nM],Ratio EC50 [11],inhibition [12] [%],EC50 [13] [nM],Ki [14] [nM],inhibition [15],Ke [16] [nM],inhibition [17]
CC[C@]12CCN(CC3CC3)[C@H](C(=O)c3ccc(O)cc31)[C@H]2C,93,–,–,–,–,–,–,–,–,–,–,–,–,–,–,–,–
Oc1cccc([C@]23CCC[C@H]([C@H]2O)N(CCc2ccc(C(F)(F)F)cc2)CC3)c1,18,29.9,761,> 50,50,83,47,19,> 50,1.99,40,> 50,901,161,–,–,–
Oc1cccc([C@]23CCC[C@H]([C@@H]2O)N(C[C@H]2C[C@H]2c2ccccc2)CC3)c1,–,–,–,> 50,–,–,–,–,< 50,51.8,–,< 50,–,–,Active,–,–
Oc1cccc([C@@]23CCC[C@@H]([C@@H]2O)N(CC/C=C/c2ccccc2)CC3)c1,–,–,–,> 50,–,–,–,–,< 50,25,–,< 50,–,–,Active,–,–
"Oc1cccc(C23CCCC(C2O)N(C/C=C/c2ccccc2)CC3)c1 (single isomer, unassigned)",–,–,–,> 50,51,20,133,1.9,> 50,0.741,–,< 50,253,17.8,–,–,–
CN1CC[C@]23c4c5ccc(O)c4O[C@H]2[C@@H](O)C=C[C@H]3[C@H]1C5,–,–,–,> 50,–,–,–,–,–,–,–,–,–,–,–,–,–
O=[N+]([O-])c1ccc(CCN2CC[C@]3(c4cccc(O)c4)CCC[C@H]2[C@@H]3O)cc1,–,–,–,> 50,–,–,–,–,< 50,26.5,–,< 50,–,–,Active,31.5,–
C=CCN1CC[C@@]2(c3cccc(O)c3)CCC[C@@H]1[C@H]2O,–,–,–,> 50,–,67,–,2060,< 50,29.2,–,< 50,–,–,–,–,–
Oc1cccc([C@]23CCC[C@H]([C@@H]2O)N(C[C@@H]2C[C@H]2c2ccccc2)CC3)c1,–,–,–,> 50,–,–,–,–,< 50,44.5,–,< 50,–,–,Active,–,–
Oc1cccc([C@]23CCC[C@H]([C@@H]2O)N(C[C@@H]2C[C@@H]2c2ccccc2)CC3)c1,–,–,–,> 50,–,22,–,797,< 50,11.6,–,< 50,–,–,–,–,–
C=CCN1C[C@H](C)N([C@H](c2ccc(C(=O)N(CC)CC)cc2)c2cccc(OC)c2)C[C@H]1C,–,–,–,–,–,–,–,–,> 50,–,–,–,–,–,–,–,–
O=[N+]([O-])c1ccc(CCN2CC[C@@]3(c4cccc(O)c4)CCC[C@@H]2[C@H]3O)cc1,–,54.5,–,> 50,104,104,850,0.74,> 50,0.073,–,> 50,630,9.81,–,–,Active
Oc1cccc([C@]23CCC[C@H]([C@H]2O)N(CCc2ccccc2)CC3)c1,–,–,–,> 50,100,120,–,22,> 50,0.265,–,–,1080,19.2,–,–,–
